In PubChem BioAssay (NCI):
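Tested at 5 concentrations; 48 h exposure; 96-well plates; endpoints linearly interpolated, else capped at highest concentration. TGI: concentration producing complete growth inhibition.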

Legend:
Assay in all cases: growth of human tumour cells (NCI), 48 h
786-0 renal = test system: 786-0 renal
A498 renal = test system: A498 renal
A549 NSCLC = test system: A549 NSCLC
ACHN renal = test system: ACHN renal
BT-549 breast = test system: BT-549 breast
CAKI-1 renal = test system: CAKI-1 renal
CCRF-CEM leukemia = test system: CCRF-CEM leukemia
COLO 205 colon = test system: COLO 205 colon
DU-145 prostate = test system: DU-145 prostate
EKVX NSCLC = test system: EKVX NSCLC
HCC-2998 colon = test system: HCC-2998 colon
HCT-116 colon = test system: HCT-116 colon
HCT-15 colon = test system: HCT-15 colon
HL-60(TB) leukemia = test system: HL-60(TB) leukemia
HOP-62 NSCLC = test system: HOP-62 NSCLC
HS 578T breast = test system: HS 578T breast
HT29 colon = test system: HT29 colon
IGROV1 ovarian = test system: IGROV1 ovarian
KM12 colon = test system: KM12 colon
LOX IMVI melanoma = test system: LOX IMVI melanoma
M14 melanoma = test system: M14 melanoma
MALME-3M melanoma = test system: MALME-3M melanoma
MCF7 breast = test system: MCF7 breast
MDA-MB-231 breast = test system: MDA-MB-231 breast
MDA-MB-435 = test system: MDA-MB-435
MDA-N = test system: MDA-N
MOLT-4 leukemia = test system: MOLT-4 leukemia
NCI-H226 lung = test system: NCI-H226 lung
NCI-H23 lung = test system: NCI-H23 lung
NCI-H460 lung = test system: NCI-H460 lung
NCI-H522 lung = test system: NCI-H522 lung
NCI/ADR-RES ovarian = test system: NCI/ADR-RES ovarian
OVCAR-3 ovarian = test system: OVCAR-3 ovarian
OVCAR-4 ovarian = test system: OVCAR-4 ovarian
OVCAR-5 ovarian = test system: OVCAR-5 ovarian
OVCAR-8 ovarian = test system: OVCAR-8 ovarian
PC-3 prostate = test system: PC-3 prostate
RPMI-8226 leukemia = test system: RPMI-8226 leukemia
RXF 393 renal = test system: RXF 393 renal
SF-268 CNS = test system: SF-268 CNS
SF-295 CNS = test system: SF-295 CNS
SF-539 CNS = test system: SF-539 CNS
SK-MEL-2 melanoma = test system: SK-MEL-2 melanoma
SK-MEL-28 melanoma = test system: SK-MEL-28 melanoma
SK-MEL-5 melanoma = test system: SK-MEL-5 melanoma
SK-OV-3 ovarian = test system: SK-OV-3 ovarian
SN12C renal = test system: SN12C renal
SNB-19 CNS = test system: SNB-19 CNS
SNB-75 CNS = test system: SNB-75 CNS
SR leukemia = test system: SR leukemia
SW-620 colon = test system: SW-620 colon
T-47D breast = test system: T-47D breast
TK-10 renal = test system: TK-10 renal
U251 CNS = test system: U251 CNS
UACC-257 melanoma = test system: UACC-257 melanoma
UACC-62 melanoma = test system: UACC-62 melanoma
UO-31 renal = test system: UO-31 renal
HOP-92 NSCLC = test system: HOP-92 NSCLC
K-562 leukemia = test system: K-562 leukemia

For `COc1ccc(-c2c3ccccc3c(-c3ccc(OCCBr)cc3)c3ccccc23)cc1`, the TGI (786-0 renal) was over 100 µM, the TGI (A498 renal) was over 100 µM and the TGI (A549 NSCLC) was over 100 µM. It also gave a TGI (ACHN renal) of over 100 µM, a TGI (BT-549 breast) of over 100 µM and a TGI (CAKI-1 renal) of over 100 µM. For the same compound, the TGI (CCRF-CEM leukemia) was over 100 µM, the TGI (COLO 205 colon) was over 100 µM and the TGI (DU-145 prostate) was over 100 µM. The TGI (EKVX NSCLC) was over 100 µM, the TGI (HCC-2998 colon) was over 100 µM and the TGI (HCT-116 colon) was over 100 µM. The TGI (HCT-15 colon) was over 100 µM, the TGI (HL-60(TB) leukemia) was over 100 µM and the TGI (HOP-62 NSCLC) was over 100 µM. For the same compound, the TGI (HS 578T breast) was over 100 µM, the TGI (HT29 colon) was over 100 µM and the TGI (IGROV1 ovarian) was over 100 µM. The TGI (KM12 colon) was over 100 µM, the TGI (LOX IMVI melanoma) was over 100 µM and the TGI (M14 melanoma) was over 100 µM. For the same compound, the TGI (MALME-3M melanoma) was over 100 µM, the TGI (MCF7 breast) was over 100 µM and the TGI (MDA-MB-231 breast) was over 100 µM. It also gave a TGI (MDA-MB-435) of over 100 µM, a TGI (MDA-N) of over 100 µM and a TGI (MOLT-4 leukemia) of over 100 µM. For the same compound, the TGI (NCI-H226 lung) was over 100 µM, the TGI (NCI-H23 lung) was over 100 µM and the TGI (NCI-H460 lung) was over 100 µM. It also gave a TGI (NCI-H522 lung) of over 100 µM, a TGI (NCI/ADR-RES ovarian) of over 100 µM and a TGI (OVCAR-3 ovarian) of over 100 µM. The TGI (OVCAR-4 ovarian) was over 100 µM, the TGI (OVCAR-5 ovarian) was over 100 µM and the TGI (OVCAR-8 ovarian) was over 100 µM. It also gave a TGI (PC-3 prostate) of over 100 µM, a TGI (RPMI-8226 leukemia) of over 100 µM and a TGI (RXF 393 renal) of over 100 µM. The TGI (SF-268 CNS) was over 100 µM, the TGI (SF-295 CNS) was over 100 µM and the TGI (SF-539 CNS) was over 100 µM. For the same compound, the TGI (SK-MEL-2 melanoma) was over 100 µM, the TGI (SK-MEL-28 melanoma) was over 100 µM and the TGI (SK-MEL-5 melanoma) was over 100 µM. It also gave a TGI (SK-OV-3 ovarian) of over 100 µM, a TGI (SN12C renal) of over 100 µM and a TGI (SNB-19 CNS) of over 100 µM. It also gave a TGI (SNB-75 CNS) of over 100 µM, a TGI (SR leukemia) of over 100 µM and a TGI (SW-620 colon) of over 100 µM. For the same compound, the TGI (T-47D breast) was over 100 µM, the TGI (TK-10 renal) was over 100 µM and the TGI (U251 CNS) was over 100 µM. The TGI (UACC-257 melanoma) was over 100 µM, the TGI (UACC-62 melanoma) was over 100 µM and the TGI (UO-31 renal) was 1.61 µM.
Work on `CC(=O)OC1(C)C(=O)OC/C2=C/CN(C)CCC(OC(=O)C(O)(C(C)Cl)CC1C)C2=O` (centres undefined) yielded a TGI (786-0 renal) of over 100 µM, a TGI (A498 renal) of over 100 µM and a TGI (A549 NSCLC) of over 100 µM. The TGI (ACHN renal) was over 100 µM, the TGI (BT-549 breast) was over 100 µM and the TGI (CAKI-1 renal) was over 100 µM. The TGI (CCRF-CEM leukemia) was over 100 µM, the TGI (COLO 205 colon) was over 100 µM and the TGI (DU-145 prostate) was over 100 µM. It also gave a TGI (EKVX NSCLC) of over 100 µM, a TGI (HCC-2998 colon) of over 100 µM and a TGI (HCT-116 colon) of over 100 µM. It also gave a TGI (HCT-15 colon) of over 100 µM, a TGI (HL-60(TB) leukemia) of over 100 µM and a TGI (HOP-62 NSCLC) of over 100 µM. It also gave a TGI (HOP-92 NSCLC) of over 100 µM, a TGI (HS 578T breast) of over 100 µM and a TGI (HT29 colon) of over 100 µM. For the same compound, the TGI (IGROV1 ovarian) was over 100 µM, the TGI (K-562 leukemia) was over 100 µM and the TGI (KM12 colon) was over 100 µM. For the same compound, the TGI (LOX IMVI melanoma) was over 100 µM, the TGI (M14 melanoma) was over 100 µM and the TGI (MCF7 breast) was over 100 µM. For the same compound, the TGI (MDA-MB-231 breast) was over 100 µM, the TGI (MDA-MB-435) was over 100 µM and the TGI (MDA-N) was over 100 µM. The TGI (MOLT-4 leukemia) was over 100 µM, the TGI (NCI-H226 lung) was over 100 µM and the TGI (NCI-H23 lung) was over 100 µM. It also gave a TGI (NCI-H460 lung) of over 100 µM, a TGI (NCI-H522 lung) of over 100 µM and a TGI (NCI/ADR-RES ovarian) of over 100 µM. For the same compound, the TGI (OVCAR-3 ovarian) was over 100 µM, the TGI (OVCAR-4 ovarian) was over 100 µM and the TGI (OVCAR-5 ovarian) was over 100 µM. The TGI (OVCAR-8 ovarian) was over 100 µM, the TGI (PC-3 prostate) was over 100 µM and the TGI (RPMI-8226 leukemia) was over 100 µM. The TGI (SF-268 CNS) was over 100 µM, the TGI (SF-295 CNS) was over 100 µM and the TGI (SF-539 CNS) was over 100 µM. The TGI (SK-MEL-2 melanoma) was over 100 µM, the TGI (SK-MEL-28 melanoma) was over 100 µM and the TGI (SK-MEL-5 melanoma) was over 100 µM. For the same compound, the TGI (SK-OV-3 ovarian) was over 100 µM, the TGI (SN12C renal) was over 100 µM and the TGI (SNB-19 CNS) was over 100 µM. For the same compound, the TGI (SNB-75 CNS) was over 100 µM, the TGI (SR leukemia) was over 100 µM and the TGI (SW-620 colon) was over 100 µM. It also gave a TGI (T-47D breast) of over 100 µM, a TGI (TK-10 renal) of over 100 µM and a TGI (U251 CNS) of over 100 µM. It also gave a TGI (UACC-257 melanoma) of over 100 µM, a TGI (UACC-62 melanoma) of over 100 µM and a TGI (UO-31 renal) of over 100 µM.
